Data set [1] can be described thus: Two-step dissolution / precipitation Fasted Human in-vitro model (Fassif). Format: physicochemical. As to conditions: thermodynamic from solid, final pH = 6.5, 30min in FaSSGF pH1.2 + 120min in FaSSIF x2 pH6.5 / Sodium bicarbonate 90/10 v/v, 37°C, read-out: solubility (HPLC-UV dosage of supernatant), last measurement point. As for the experimental part:
(§1) ABX464 in its unique crystalline form and ABX464 :VA64 ASD (prepared according to example 1 above) were tested by using both Fasted and Fed Human in-vitro models (respectively named Fassif and Fessif models). These models simulate respectively fasted and fed state gastrointestinal fluids for dissolution testing.
For the Fasted in-vitro model, 11.4mg of ABX464:VA64 ASD (4.0mg equivalent ABX464) were weighed in 6 different vials. In all vials, 1ml of FaSSGF pH1.2 solution pre-heated at 37°C were added. Suspension were then vortexed at 37°C. After 15min vortex, suspension of the first vial was centrifuged 5min at 18000 rpm and filtered under 0.45µm filter (Millex LCR filter ref. SLCR0.13NK) for HPLC-UV dosage of supernatant. After 30min vortex, suspension of the second vial was centrifuged 5min at 18000 rpm and filtered under 0.45µm filter (Millex LCR filter ref. SLCR0.13NK) for HPLC-UV dosage of supernatant.
After 30min vortex, 1ml of FaSSIF x2 pH6.5 / Sodium bicarbonate 90/10 v/v pre-heated at 37°C was added on other 4 vials. Suspension were then vortexed at 37°C. After 15min vortex, suspension of the third vial was centrifuged 5min at 18000 rpm and filtered under 0.45µm filter (Millex LCR filter ref. SLCR0.13NK) for HPLC-UV dosage of supernatant. […]

A short description of data set [2]: Two-step dissolution / precipitation Fed Human in-vitro model (Fessif). Type of data set: physicochemical. As to conditions: thermodynamic from solid, final pH 5.0, 60min in FeSSGF pH3.0 + 120min in FeSSIF x3 pH5.0, 37°C, read-out: solubility (HPLC-UV dosage of supernatant), last measurement point. The procedure:
as §1
For the Fed in-vitro model, 11.4mg of ABX464:VA64 ASD (4.0mg equivalent ABX464) were weighed in 7 different vials. In all vials, 1ml of FeSSGF pH3.0 solution pre-heated at 37°C were added. Suspension were then vortexed at 37°C. After 15min vortex, suspension of the first vial was centrifuged 5min at 18000 rpm and filtered under 0.45µm filter (Millex LCR filter ref. SLCR0.13NK) for HPLC-UV dosage of supernatant. After 30min vortex, suspension of the second vial was centrifuged 5min at 18000 rpm and filtered under 0.45µm filter (Millex LCR filter ref. SLCR0.13NK) for HPLC-UV dosage of supernatant. After 60min vortex, suspension of the third vial was centrifuged 5min at 18000 rpm and filtered under 0.45µm filter (Millex LCR filter ref. SLCR0.13NK) for HPLC-UV dosage of supernatant.
After 60min vortex, 0.5ml of FeSSIF x3 pH5.0 pre-heated at 37°C was added on other 4 vials. Suspension were then vortexed at 37°C. […]

Take `FC(F)(F)Oc1ccc(Nc2ccc3cccc(Cl)c3n2)cc1` [ABX464, 8-Chloro-N-(4-(trifluoromethoxy)phenyl)quinolin-2-amine]: the solubility at 120 min in data set [1] stood at 70 µg/mL; in data set [2], 508 µg/mL.

Broadly, the solubility is how much of the substance goes into solution per volume.

The values are drawn from patent EP3858336A1, “AMORPHOUS SOLID DISPERSION OF 8-CHLORO-N-(4-(TRIFLUOROMETHOXY)PHENYL)QUINOLIN-2-AMINE” (ABIVAX, priority 2020, dated 2021).
